Laboratory results published in EP1169044B1, “USE OF FUCOSYLATED SIALYLATED N-ACETYL LACTOSAMINE CARBOHYDRATE STRUCTURES FOR INHIBITION OF BACTERIAL ADHERENCE” (Borén, Thomas, priority 1999, dated 2000).
pKd: −log10 of the molar value.

What was measured:
H. pylori strains = experiment: radio immuno analysis (RIA) with 125I-labelled neoglycoconjugates; type: binding, Helicobacter pylori; conditions: strains of Fig. 4 (BabA2 mutant, babA1A2 mutant, CCUG 17875, CCUG 17874), 400 ng conjugate, 30 min
Procedure: Bars, from the left to the right; The sialyl-alfa2.61actose-, sialyl-alfa2.31actose-, sialyl-Lewis a-, sialyl-Lewis x-, and Lewis b-, synthesised sialyl-Lewis x- sialyl-acetyllactosaminee, both with a either a 3 carbon or 14 carbon (extended/hydrophilic) spacer, conjugated to albumin, Finally, the histo-blood group antigen Lewis y (synthesised penta-saccharide) (V. Behar and S.J. Danishefsky, Angew. Chem. Int. Ed. Engi, 1994, 33, no. 14, 1468.), was analysed as a neo-glycoconjugate.
(§1) The sialyl-alfa2.3lactose-, sialyl-alfa2.61actose-, sialyl-Lewis a-, and Lewis b-oligosaccharide antigens used for neoglycoconjugate preparations were purified by HPLC, structurally identified and characterized with NMR-spectroscopy, and more than 95% pure. These conjugates were attached to albumin with an APD (acetylphenylenediamine) spacer attached to the carbohydrate by reductive animation and thus the terminal reducing monosaccharide unit of the oligosaccharide is reduced and is present as an aminoalditol, IsoSep AB, Tullinge, Sweden (T. Borén, P. Falk, K. A. Roth, G. Larson, and S. Normark, Science. 262, 1892 (1993), P. D. Rye, Nature Biotechnology 2, 155 (1996)). The synthesised sialyl-Lewis x- tetrasaccharide antigen was conjugated to albumin with the MPE (mercaptopropionyl-amidoethyl) -spacer, IsoSep AB. Synthesised sialyl-Lewis x-tetrasaccharide and sialyl-acetyllactosaminee, both with a either a 3 carbon or 14 carbon (extended/hydrophilic) spacer, conjugated to albumin, were obtained from Dextra Laboratories, Reading, UK. The RIA (Fig. 4) was performed according to (P. Falk, T. Borén, D. Haslam, M. G. Caparon, Meth. Cell Biol. 45, 161 (1994)) with minor modifications; the glycoconjugates were ^125I-labelled by the Chloramine T method. 1 ml of bacteria (A600= OD 0.10) was incubated with 400 ng of ^125I-labelled conjugate (that is an excess of receptor substrate) for 30 min. in phosphate buffered saline (PBS), 0.5 % albumin, 0.05 % Tween-20 (BB-buffer). After centrifugation, the ^125I-activity bound to the bacterial pellet was measured by gamma scintillation counting. Binding experiments were reproducible and performed in triplets. In addition, the level of binding-activity within the strain was stabile.

[1] = tested on: Helicobacter pylori strain CCUG 17875; experiment: thin-layer chromatogram binding assay (radiolabelled bacteria overlaid on separated glycosphingolipids); conditions: glycosphingolipids on thin-layer chromatograms, autoradiogram
Procedure: (§2) The glycosphingolipids were separated and (A) visualised with anisaldehyde. Duplicate chromatograms were incubated with monoclonal (B) anti-sialyl-Lewis x, (C) anti-sialyl-Lewis a, and radiolabelled H. pylori (D) strain CCUG 17875, (E) the BabA1A2 mutant strain, and (F) strain CCUG 17874. Autoradiography was for 12 hr. The lanes contained: 1, Acid glycosphingolipids of calf brain, 40 µg; 2, Acid glycosphingolipids of human neutrophil granulocytes, 40 µg; 3, Acid glycosphingolipids of human neutrophil granulocytes after de-sialylation, 40 µg; 4, Acid glycosphingolipids of human gall bladder adenocarcinoma, 40 µg; 5, Acid glycosphingolipids of human gall bladder adenocarcinoma after de-sialylation, 40 µg; 6, NeuAcα3Galβ4(Fucα3)GlcNAcβ3Galβ4(Fucα3)GlcNAcβ3Galβ4Glcβ1Cer isolated from human gall bladder adenocarcinoma, 1 µg; 7, NeuAcα3Galβ3(Fucα4)GlcNAcβ3Galβ4Glcβ1-Cer (sialyl-Lewis a hexaglycosylceramide) isolated from human gall bladder adenocarcinoma, 4 µg; 8, NeuAcα3Galβ4(Fucα3)GlcNAcβ3Galβ4Glcβ1Cer (sialyl-Lewis x hexaglycosyl-ceramide), 4 µg; 9, Fucα2Galβ3(Fucα4)GlcNAcβ3Galβ4Glcβ1Cer (Lewis b-6 hexaglycosylceramide) of human small intestine, 4 µg.
(§3) Culture and ^35S-labelling of H. pylori was as outlined in (Ångström, J., Teneberg, S., Abul Milh, M,. Larsson, T., Leonardsson, I., Olsson, B.-M., Ölwegård Halvarsson, M., Danielsson, D., and Karlsson, K.-A. (1998). The lactosylceramide binding specificity of Helicobacter pylori. Glycobiology 8, 297-309.). Mixtures of glycosphingolipids (20-40 µg/lane) or pure compounds (0.002-4 µg/lane) were separated on aluminium-backed silica gel 60 HPTLC plates (Merck), using chloroform:methanol:water 60:35:8 (v/v/v) as solvent system. Chemical detection was done with anisaldehyde (Waldi, D. (1962) Sprühreagentien für die dünnschicht-chromatographie. In Dünnschicht-Chromatographie, E. Stahl ed. (Berlin: Springer-Verlag) pp. 496-51).
(§4) Binding of radiolabelled H. pylori to glycosphingolipids on thin-layer chromatograms was performed as described above (Ångström et al., 1998) using suspensions of bacteria diluted in phosphate-buffered saline (PBS), pH 7.3, to 1x10^8 CFU/ml. The specific activities of the suspensions were approximately 1 CPM per 100 H. pylori organisms. Binding of monoclonal antibodies was done as described (Magnani, J.L., Brockhaus, M., Smith, D.F., Ginsburg, V., Blaszczyk, M., Mitchell, K.F., Steplewski, Z., and Koprowski, H. (1981). A monosialoganglioside is a monoclonal antibody-defined antigen of colon-carcinoma. Science 212, 55-56). Anti-sialyl-Lewis x monoclonal antibodies (clone KM-93) were from Seikagaku Corp., Tokyo, Japan and anti-sialyl-Lewis a monoclonal antibodies (CA 19-9) from Signet Laboratories, Inc., Dedham, MA 02026, USA.
(§5) Screening of potential receptor structures unique for thebabA1/babA2-mutant was performed by adherence experiments to well-defined panels of MS-characterized glycolipids, from defined and unique sources and tissues. Binding of H. pylori and monoclonal antibodies to glycosphingo-lipids was evaluated using the thin-layer chromatogram binding assay (J. Ångström et al., Glycobiology 8, 297 (1998); J. M. McKibbin et al., J. Biol. Chem. 257,755 (1982)), i.e., glyco-lipids were separated on HPTLC-plates, and H. pylori CCUG 17875 wild type bacteria and the babA1/babA2-mutant were overlaid on the plates and binding of radio labelled bacterial cells was detected. (See Experimental procedures).

[2] = tested on: strain CCUG 17874, the BabA2 mutant and the BabA1A2 mutant; experiment: as above; parameters: species or system Helicobacter pylori; conditions: for Binding obtained with strain CCUG 17874, the babA2 mutant and the babA1A2 mutant: glycosphingolipids on thin-layer chromatograms, autoradiogram; for binding to glycosphingolipids on thin-layer chromatograms (in words): CCUG 17874, babA2 mutant, babA1A2 mutant
Procedure: as §2, §3, §4, §5

babA1A2-mutant = experiment: Scatchard affinity analysis with sialylated conjugates; type: binding, Helicobacter pylori
From the text: as §1, with “1 ml of bacteria (A600= OD 0.10) was incubated with 400 ng of ^125I-labelled conjugate (that is an excess of receptor substrate) for 30 min. in phosphate buffered saline (PBS), 0.5 % albumin, 0.05 % Tween-20 (BB-buffer).” left out, “Binding experiments were reproducible and performed in triplets. In addition, the level of binding-activity within the strain was stabile.” left out

Row | Molecule | binding of 125I-labelled neoglycoconjugate (in words) (H. pylori strains) | Binding obtained with strain CCUG 17875 ([1]; Table 1) | Binding obtained with strain CCUG 17875 ([1]; Table 2) | Binding obtained with strain CCUG 17874, the babA2 mutant and the babA1A2 mutant ([2]; Table 1) | Binding obtained with strain CCUG 17874, the babA2 mutant and the babA1A2 mutant ([2]; Table 2) | further results
1 | CC(=O)NC1C(O)CC(OCC2OC(OC3C(CO)OC(O)C(O)C3O)C(O)C(O)C2O)(C(=O)O)OC1C(O)C(O)CO (centres unmarked) [sialyl-alfa2.61actose antigen, Neu5Acα6Galβ4Glc] | Poor binding | – | – | – | – | binding of 125I-labelled neoglycoconjugate (in words) (H. pylori strains; listed as sialyl-alfa 2,6 lactose conjugate): did not demonstrate any binding activity
2 | Galβ3GalNAcβ4(NeuAcα3)Galβ4Glcβ1Cer [GM1] | – | - (- denotes no darkening even at 2 nmol) | - (– denotes no darkening even at 2 nmol) | - (- denotes no darkening even at 2 nmol) | - (– denotes no darkening even at 2 nmol) | –
3 | NeuAcα3Galβ4Glcβ1Cer [GM3] | – | - (- denotes no darkening even at 2 nmol) | - (– denotes no darkening even at 2 nmol) | - (- denotes no darkening even at 2 nmol) | - (– denotes no darkening even at 2 nmol) | –
4 | Neu5Acα3Galβ4GlcNAc [equivalent structure linked by a shorter, 3 carbon spacer] | much reduced in binding | – | – | – | – | –
5 | NeuAcα3Galβ3GalNAcβ4(NeuAcα3)Galβ4Glcβ1Cer [GD1a] | – | - (- denotes no darkening even at 2 nmol) | - (– denotes no darkening even at 2 nmol) | - (- denotes no darkening even at 2 nmol) | - (– denotes no darkening even at 2 nmol) | –
6 | Fucα2Galβ3(Fucα4)GlcNAcβ3Galβ4Glcβ1Cer [Le^b-6] | – | +^3 (+ denotes a darkening at 2 nmol) | +3 (+3 denotes a significant darkening on the autoradiogram when 1 pmol of structure was applied on the thin-layer plate) | - (- denotes no darkening even at 2 nmol) | - (– denotes no darkening even at 2 nmol) | binding to glycosphingolipids on thin-layer chromatograms (in words) [2]: did not recognize
7 | NeuAcα3Galβ4(Fucα3)GlcNAcβ3Galβ4Glcβ1Cer [S-Le^x] | – | – | – | – | – | binding to glycosphingolipids on thin-layer chromatograms (in words) [2]: weak binding; amount required for binding ([2]; weak, occasionally observed binding on thin-layer chromatogram): 2 nmol
8 | Neu5Acα3Galβ4GlcNAc [alfa2.31actoseamine with a 14 carbon spacer] | rather efficient binding | – | – | – | – | –
9 | NeuAcα3Galβ4(Fucα3)GlcNAcβ3Galβ4(Fucα3)GlcNAcβ3Galβ4Glcβ1Cer | – | - (- denotes no darkening even at 2 nmol) | - (– denotes no darkening even at 2 nmol) | +++ (+++ denotes a significant darkening on the autoradiogram when 1 pmol was applied on the thin-layer plate) | +3 (+3 denotes a significant darkening on the autoradiogram when 1 pmol of structure was applied on the thin-layer plate) | detection level ([2]; binding on thin-layer chromatogram): approximately 1 pmol
10 | Galβ3GalNAcβ4(NeuAcα8NeuAcα3)Galβ4Glcβ1Cer [GD1b] | – | - (- denotes no darkening even at 2 nmol) | - (– denotes no darkening even at 2 nmol) | - (- denotes no darkening even at 2 nmol) | - (– denotes no darkening even at 2 nmol) | –
11 | CC(=O)N[C@H]1[C@H]([C@H](O)[C@H](O)CO)O[C@@](O[C@H]2[C@@H](O)[C@@H](CO)O[C@@H](O[C@H]3[C@H](O)[C@@H](O)C(O)O[C@@H]3CO)[C@@H]2O)(C(=O)O)C[C@@H]1O (some centres unmarked) [sialyl-alfa2.31actose antigen, Neu5Acα3Galβ4Glc] | Poor binding | – | – | – | – | fold lower affinity (babA1A2-mutant; compared with the fucosylated sialyl-Lewis x structures): 20 fold; pKd (babA1A2-mutant; read-out: affinity according to Scatchard): 7.00
12 | NeuAcα3Galβ3(Fucα4)GlcNAcβ3Galβ4Glcβ1Cer [S-Le^a] | – | – | - (– denotes no darkening even at 2 nmol) | – | - (– denotes no darkening even at 2 nmol) | binding to glycosphingolipids on thin-layer chromatograms (in words) [2]: almost no binding
